Data from paper PMC8831520, “Small molecule SWELL1 complex induction improves glycemic control and nonalcoholic fatty liver disease in murine Type 2 diabetes” (Nature Communications, 2022).

How the values were obtained:
[1] = molecular target: T1, R103E-SWELL1 expressing HEK-293 cells (R103E O/E) (Homo sapiens, UniProt Q8IWT6, R103E); test: ICl,SWELL inhibition in SWELL1-R103E overexpressing cells, patch-clamp; type: cell-based
T1 construct: P2A:EGFP (C); host or cells: HEK-293, Lipofectamine 2000, co-transfected with CMV-Cre; EGFP+ cells recorded
Source text: See also Fig. 6 for a schematic representation. […] For SWELL1-R103E overexpression experiments, HEK-293 cells were transfected with either control Cre plasmid (CMV-Cre, McDonnell Genome Institute in Washington University in St. Louis) or Cre plus R103E-GFP (CAG-LoxP-stop-LoxP-SWELL1-R103E/3XFlag:P2A:EGFP, Vector Biolabs) plasmid using Lipofectamine 2000 as per the manufacturer’s protocol. SWELL1-R103E expressing HEK-293 cells were identified by EGFP + fluorescence.

cadaveric human islets = test: GSIS perifusion of palmitate-treated human islets; type: cell-based; conditions: 10 µM for 4 days prior to and during 1 mM palmitate 16 h, washed off during GSIS
Method: Cadaveric human islets were obtained from the Integrated Islet Distribution Program (IIDP), Prodo Laboratories, and the Alberta Diabetes Institute Islet Core. The human islets obtained from the Integrated Islet Distribution program and Prodo laboratories were exempt from Institutional Review Board approval under 45 CRR 46.101 (b) category (4) and 45 CFR 46.102 h, respectively. Human islets were obtained from the Alberta Diabetes Institute IsletCore at the University of Alberta in Edmonton (http://www.bcell.org/adi-isletcore.html) with the assistance of the Human Organ Procurement and Exchange (HOPE) program, Trillium Gift of Life Network (TGLN), and other Canadian organ procurement organizations. Islet isolation was approved by the Human Research Ethics Board at the University of Alberta (Pro00013094). All donors’ families gave informed consent for the use of pancreatic tissue in research. Human islets were cultured in RPMI media with 2% FBS overnight. […] Insulin concentrations were further determined using a commercially available ELISA kit (Mercodia). The area under the curve (AUC) for the high-glucose-induced insulin release was calculated for time points between 50 to 74/84 min. At the completion of the experiment, islets were further lysed by the addition of RIPA buffer and the amount of insulin was detected by ELISA.

T1 sequence (Q8IWT6 whole entry R103E): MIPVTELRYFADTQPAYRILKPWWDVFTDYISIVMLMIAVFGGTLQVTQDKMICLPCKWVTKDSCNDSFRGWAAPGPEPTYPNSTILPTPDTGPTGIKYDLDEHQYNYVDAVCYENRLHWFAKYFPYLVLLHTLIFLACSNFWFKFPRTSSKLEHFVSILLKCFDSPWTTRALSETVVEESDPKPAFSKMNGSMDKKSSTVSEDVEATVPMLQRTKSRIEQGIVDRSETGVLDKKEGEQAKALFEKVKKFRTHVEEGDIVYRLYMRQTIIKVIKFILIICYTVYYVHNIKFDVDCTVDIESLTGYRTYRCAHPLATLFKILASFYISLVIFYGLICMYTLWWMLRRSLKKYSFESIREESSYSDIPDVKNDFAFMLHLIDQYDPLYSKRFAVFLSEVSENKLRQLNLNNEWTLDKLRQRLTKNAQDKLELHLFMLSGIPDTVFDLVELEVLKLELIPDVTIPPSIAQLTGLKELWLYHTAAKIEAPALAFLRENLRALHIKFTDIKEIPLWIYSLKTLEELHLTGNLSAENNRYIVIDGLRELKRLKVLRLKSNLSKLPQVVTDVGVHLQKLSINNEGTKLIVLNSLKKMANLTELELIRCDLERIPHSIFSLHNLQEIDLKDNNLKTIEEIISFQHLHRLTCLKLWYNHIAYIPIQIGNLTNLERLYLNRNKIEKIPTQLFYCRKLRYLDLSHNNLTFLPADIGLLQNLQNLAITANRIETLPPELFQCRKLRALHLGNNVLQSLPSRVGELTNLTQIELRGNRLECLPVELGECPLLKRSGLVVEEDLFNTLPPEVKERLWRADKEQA

SMILES: CCCCC1(C2CCCC2)Cc2cc(OCCCC(=O)O)c(Cl)c(Cl)c2C1=O (centres unmarked) [SN-401, 4-((2-butyl-6,7-dichloro-2-cyclopentyl-1-oxo-2,3-dihydro-1H-inden-5-yl)oxy)butanoic acid]
- IC50 [1]: 6 µM
- glucose-stimulated insulin secretion after palmitate (cadaveric human islets): normalized
